Reference: patent US20180325893A1, “SUBACUTE ADMINISTRATION OF NMDA MODULATORS ALONE OR IN COMBINATION” (Northwestern University, priority 2015, published 2018)
“Also recorded” adds a separate entry of the source. Peptide text beside a SMILES is read from it.

Key:
Format in all cases: in vivo
[1] = system: male C57BL/6J mice; test: NOR in subchronic PCP-treated mice (Example 2); conditions: for preference for novel versus familiar object, retention trial: Example 2
Method: (§1) Three cohorts of male C57BL/6J mice (2½-3 month old, Jackson, Mass., USA), N=40, 45, and 48 were used in Examples 1, 2, 3 respectively. Mice were group housed (five/cage) in a controlled environment held at 21±2° C. and 50±15% relative humidity with a 14:10 h light-dark period (lights on: 05:00 am). All experiments were conducted during the light phase. Food and water were available ad libitum. The mice were habituated to the colony upon arrival for a week, during which time, they were not handled. All experiments were conducted in accordance with Institutional Animal Care and Use Committee of Northwestern University, Chicago.
(§2) Rapastinel was obtained from SAI Life Sciences (India). PCP was a generous gift from National Institute of Drug Abuse. Ketamine was purchased from Sigma Aldrich (St. Louis, Mo.). Lurasidone was provided by Sumitomo Dainippon Pharma Co., Ltd. (Osaka, Japan). Rapastinel, PCP, and ketamine were dissolved in 0.9% sterile saline (Sal). PCP and ketamine were administered intraperitoneally (ip), at a volume of 10 mL/kg body weight. Rapastinel was given intravenously (iv). The dose of rapastinel (1.0 mg/kg) was chosen because it produced optimal enhancement in learning in both young adult and aged rats and in a trace eye blink conditioning task in rabbits. […] The dose for lurasidone (0.1 mg/kg) was chosen based on prior NOR studies in C57BL/6J mice which determined the effective dose of lurasidone to restore NOR in subchronic PCP-treated mice.
(§3) For acute drug treatments, rapastinel (1.0 mg/kg, iv), lurasidone (0.1 mg/kg, i.p.) or ketamine (30 mg/kg, ip) were administered 30 min prior to the acquisition trial of the NOR task (described below) to the subchronic ketamine or subchronic PCP-treated animals. For subchronic drug treatments, 7-10 mice/cohort were randomly assigned to Sal, PCP, or ketamine. The Sal-treated mice received 0.9% NaCl; the drug treatment groups received either PCP (10 mg/kg; ip), or ketamine (30 mg/kg; ip) twice daily for 7 days. This was followed by a 7 day washout period during which time, mice were left undisturbed in the home cage until initiation of habituation (see below).
NOR testing in mice was slightly modified from Hashimoto et al (Hashimoto K.; Fujita Y.; Shimizu E.; Iyo M. European Journal of Pharmacology 2005, 519:114-7). […] Similar observations were made when large objects were used. […] It was observed that C57BL/6J mice explored less when the duration of trials were 3 or 5. […] The NOR apparatus consisted of an open box made of Plexiglas (52 cm L; 52 cm W; 31 cm H) with white walls and a solid floor. The box was positioned approximately 30 cm above the floor, centered on a table such that the overhead lights could not provide a spatial cue. One day after the 7 day washout from subchronic drug treatment or Sal, mice were habituated to the empty NOR arena, as a group, for one hour, on each of three days prior to the acquisition trial. During the acquisition trial, the mice were allowed to explore two identical objects (e.g. A1 and A2) for 10 min. This was followed by a 24-hour inter-trial interval, after which the mice were returned to the home cage. […] Behavior was recorded on video for blind scoring of object exploration. […] The discrimination index (DI) [(time spent exploring the novel object—time spent exploring the familiar object)/total exploration time] was then calculated for retention trials. […]

[2] = system: male C57BL/6J mice; test: Novel object recognition (NOR), acute drug treatment / acute ketamine-induced deficit (Example 1); conditions: for discrimination index (DI) / NOR deficit: Example 1, FIG. 1; for preference for novel versus familiar object (exploration time), retention trial: Example 1
Method: as §1, §2, §3
(§4) NOR testing in mice was slightly modified from Hashimoto et al (Hashimoto K.; Fujita Y.; Shimizu E.; Iyo M. European Journal of Pharmacology 2005, 519:114-7). […] Similar observations were made when large objects were used. […] It was observed that C57BL/6J mice explored less when the duration of trials were 3 or 5. […] The NOR apparatus consisted of an open box made of Plexiglas (52 cm L; 52 cm W; 31 cm H) with white walls and a solid floor. The box was positioned approximately 30 cm above the floor, centered on a table such that the overhead lights could not provide a spatial cue. One day after the 7 day washout from subchronic drug treatment or Sal, mice were habituated to the empty NOR arena, as a group, for one hour, on each of three days prior to the acquisition trial. During the acquisition trial, the mice were allowed to explore two identical objects (e.g. A1 and A2) for 10 min. This was followed by a 24-hour inter-trial interval, after which the mice were returned to the home cage. During the retention trial, the mice were allowed to explore the familiar object (A) from the acquisition trial and a novel object (e.g. B). The location of the novel object in the retention trial was randomly assigned for each mouse tested using a pseudorandom schedule. […] Also, to avoid bias or olfactory trails, objects were used in triplicates, i.e. that the same object that was used in the acquisition trial was not presented in retention trial. Behavior was recorded on video for blind scoring of object exploration. Object exploration was defined as an animal licking, sniffing, or touching the object with the forepaws while sniffing. […] The discrimination index (DI) [(time spent exploring the novel object—time spent exploring the familiar object)/total exploration time] was then calculated for retention trials. […]

[3] = system: male C57BL/6J mice; test: NOR in subchronic ketamine-treated mice (Examples 2 and 3)
Method: as §1, §2, §3, §4

[4] = acute drug plus sal, rapastinel 1.0 mg/kg, ketamine 30 mg/kg
[5] = acute drug plus sal, 30 min prior to acquisition trial, rapastinel 1.0 mg/kg iv, ketamine 30 mg/kg ip

| SMILES | discrimination index (DI) ([1]; Example 2, FIG. 2, subchronic PCP alone, compared to sal plus sal) | preference for novel versus familiar object, retention trial ([1]; subchronic PCP 10 mg/kg ip twice daily 7 days, 7 day washout) | discrimination index (DI) / NOR deficit [2, 4] | preference for novel versus familiar object (exploration time), retention trial [2, 5] | discrimination index (DI) ([3]; Example 2, FIG. 2, subchronic ketamine alone, compared to sal plus sal) | preference for novel versus familiar object, retention trial ([3]; Example 2, subchronic ketamine 30 mg/kg ip twice daily 7 days, 7 day washout) | discrimination index (DI) ([3]; Example 3, FIG. 3, subchronic ketamine plus sal, compared to saline controls) | preference for novel versus familiar object, retention trial ([3]; Example 3, subchronic ketamine alone) | discrimination index (DI) / NOR deficit ([2]; rapastinel 1.0 mg/kg plus acute ketamine 30 mg/kg) | discrimination index (DI) / NOR deficit ([2]; rapastinel 1.0 mg/kg plus acute ketamine 30 mg/kg, listed as Rap) | preference for novel versus familiar object (exploration time), retention trial ([2]; rapastinel 1.0 mg/kg prior to acute ketamine 30 mg/kg) | discrimination index (DI) / NOR deficit ([1]; Example 2, FIG. 2, acute rapastinel 1.0 mg/kg in subchronic PCP-treated mice) | discrimination index (DI) / NOR deficit ([1]; Example 2, FIG. 2, acute rapastinel 1.0 mg/kg in subchronic PCP-treated mice, listed as rap) | preference for novel versus familiar object, retention trial ([1]; acute rapastinel 1.0 mg/kg in subchronic PCP-treated mice) | discrimination index (DI) / NOR deficit ([3]; Example 2, FIG. 2, acute rapastinel 1.0 mg/kg in subchronic ketamine-treated mice) | discrimination index (DI) / NOR deficit ([3]; Example 2, FIG. 2, acute rapastinel 1.0 mg/kg in subchronic ketamine-treated mice, listed as rap) | preference for novel versus familiar object, retention trial ([3]; Example 2, acute rapastinel 1.0 mg/kg in subchronic ketamine-treated mice) | discrimination index (DI) / NOR deficit ([3]; Example 3, FIG. 3, subchronic ketamine-treated mice given sub-effective dose rapastinel 0.3 mg/kg and/or sub-effective dose lurasidone 0.1 mg/kg) | preference for novel versus familiar object, retention trial ([3]; Example 3, subchronic ketamine-treated mice given sub-effective dose rapastinel 0.3 mg/kg and/or sub-effective dose lurasidone 0.1 mg/kg) |
| --- | --- | --- | --- | --- | --- | --- | --- | --- | --- | --- | --- | --- | --- | --- | --- | --- | --- | --- | --- |
| c1ccc(C2(N3CCCCC3)CCCCC2)cc1 [PCP, reference compound] | significantly reduced | abolished |  |  |  |  |  |  |  |  |  |  |  |  |  |  |  |  |  |
| CNC1(c2ccccc2Cl)CCCCC1=O (stereo not drawn) [ketamine, Ketamine, reference compound] |  |  | induced a significant NOR deficit; also recorded: significantly reduced | abolished | significantly reduced | abolished | significant reductions in the DI | abolished |  |  |  |  |  |  |  |  |  |  |  |
| CC(O)C(N)C(=O)N1CCCC1C(=O)N1CCCC1C(=O)NC(C(N)=O)C(C)O (stereo not drawn) [rapastinel, Rapastinel] (H-TPPT-NH2; configuration not given here) |  |  | did not induce NOR deficit | showed a clear preference for the novel compared to the familiar object |  |  |  |  | significantly prevented the acute ketamine-induced decrease in DI | significantly prevented the ket-induced NOR deficit | showed clear preference for the novel compared to the familiar object | significantly increased | significantly reversed | explored the novel object significantly more compared to the familiar object | significantly increased | significantly reversed | explored the novel object significantly more compared to the familiar object | neither drug above at these doses was effective; also recorded: significant reductions in the DI | abolished |
